Results on 26 compounds are retold here after ChEMBL document CHEMBL1132099, “The design of potent and selective inhibitors of thrombin utilizing a piperazinedione template: part 2” (Bioorg Med Chem Lett, 1999).

pIC50, pKi: −log10 of the molar value.

Test [1] addresses T1, Prothrombin (Homo sapiens, UniProt P00734). Kind of test: Inhibitory concentration required against thrombin was determined.
The target in test [2] is T2, Serine protease 1 (Homo sapiens, UniProt P07477). Kind of test: Inhibitory concentration required against trypsin was determined.
Test [3] addresses T1, Prothrombin. Kind of test: Inhibition of thrombin.
Test [4] addresses T2, Serine protease 1. Kind of test: Compound was tested for percent inhibition against trypsin at 100 uM.
The subject of another test is Trypsin. The experiment in a line: Compound was tested for percent inhibition against trypsin at 100 uM.

T2 sequence (P07477 whole entry): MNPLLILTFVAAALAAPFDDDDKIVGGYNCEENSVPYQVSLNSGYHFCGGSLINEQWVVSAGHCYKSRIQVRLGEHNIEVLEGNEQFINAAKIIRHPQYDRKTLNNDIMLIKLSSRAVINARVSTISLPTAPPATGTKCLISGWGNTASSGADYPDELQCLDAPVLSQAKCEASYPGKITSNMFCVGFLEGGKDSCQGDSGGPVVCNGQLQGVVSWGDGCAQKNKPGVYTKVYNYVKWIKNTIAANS

Take `N=C(N)N1CCCC(C[C@H](NC(=O)CN2C(=O)CN(CCc3ccccc3)C(=O)[C@H]2Cc2ccccc2)C(=O)c2nccs2)C1` (some centres not stated): the pIC50 was 6.00 against Prothrombin [1] and 4.35 against Serine protease 1 [2].
For the compound `N=C(N)N1CCCC(C[C@H](NC(=O)CN2C(=O)CN(CCCc3ccccc3)C(=O)[C@H]2Cc2ccc(Cl)c(Cl)c2)C(=O)c2nccs2)C1` (some centres not stated), the pIC50 is 7.10 against Prothrombin [1] and 5.11 against Serine protease 1 [2]. This compound gave a pKi at Prothrombin [3] of 8.10.
Turning to `N=C(N)N1CCCC(C[C@H](NC(=O)CN2C(=O)CN(CCCc3ccccc3)C(=O)[C@H]2Cc2ccc3ccccc3c2)C(=O)c2nccs2)C1` (some centres not stated), the negative logarithm of the IC50 (pIC50) against Prothrombin [1] was 6.80; against Serine protease 1 [2], 4.74. On Prothrombin [3], the pKi was 7.26.
At Prothrombin [1], `N=C(N)N1CCCC(C[C@H](NC(=O)CN2C(=O)CN(CCCc3ccccc3)C(=O)[C@H]2Cc2ccccc2)C(=O)N2CCCCC2)C1` (some centres not stated) gave a pIC50 of 5.18. The inhibition against Serine protease 1 [4] came out at 52%. Moreover, the pKi on Prothrombin [3] is 6.08.
On to `N=C(N)N1CCCC(C[C@H](NC(=O)CN2C(=O)CN(CCCc3ccccc3)C(=O)[C@H]2Cc2ccccc2)C(=O)c2nc3ccccc3s2)C1` (some centres not stated), for which the figures for the pIC50 at Prothrombin [1] and on Serine protease 1 [2] were 6.82 and 5.43, respectively. At Prothrombin [3], this compound showed a pKi of 7.10.
`N=C(N)N1CCCC(C[C@H](NC(=O)CN2C(=O)CN(CCCc3ccccc3)C(=O)[C@H]2Cc2ccccc2)C(=O)N2CCCC2)C1` (some centres not stated): the figures for the pIC50 against Prothrombin [1] and against Serine protease 1 [2] were 6.18 and 5.06, respectively. This compound gave a pKi on Prothrombin [3] of 6.89.
Take `N=C(N)N1CCCC(C[C@H](NC(=O)CN2C(=O)CN(CCCc3ccccc3)C(=O)[C@H]2Cc2ccccc2Cl)C(=O)c2nccs2)C1` (some centres not stated): the pIC50 against Prothrombin [1] was 7.74; at Serine protease 1 [2], 5.01. At Prothrombin [3], this compound showed a pKi of 8.92.
In the case of `N=C(N)NCCC[C@H](NC(=O)CN1C(=O)CN(CCCc2ccccc2)C(=O)[C@H]1Cc1ccccc1)C(N)=O`, the figures for the inhibition against Serine protease 1 [4] and with Trypsin were 15% and 35%, respectively.
Turning to `N=C(N)N1CCCC(C[C@H](NC(=O)CN2C(=O)CN(Cc3ccccc3)C(=O)[C@H]2Cc2ccccc2)C(=O)c2nccs2)C1` (some centres not stated), the pIC50 was 5.91 on Prothrombin [1] and 4.68 at Serine protease 1 [2].
On to `C[C@@H]1C(=O)N(CCCc2ccccc2)CC(=O)N1CC(=O)N[C@@H](C[C@@H]1CCCN(C(=N)N)C1)C(=O)c1nccs1`, for which the pIC50 on Prothrombin [1] is 6.06; against Serine protease 1 [2], 6.47.
Regarding `N=C(N)N1CCCC(C[C@H](NC(=O)CN2C(=O)CN(CCCc3ccc(O)cc3)C(=O)[C@H]2Cc2ccccc2)C(=O)c2nccs2)C1` (some centres not stated), the pIC50 at Prothrombin [1] is 6.62; at Serine protease 1 [2], 4.60.
As to `N=C(N)NCCC[C@H](NC(=O)CN1C(=O)CN(CCCc2ccccc2)C(=O)[C@H]1Cc1ccccc1)C(=O)c1nccs1`, the pIC50 against Prothrombin [1] is 5.47; on Serine protease 1 [2], 7.02.
In the case of `Cc1ccc(CCCN2CC(=O)N(CC(=O)N[C@@H](CC3CCCN(C(=N)N)C3)C(=O)c3nccs3)[C@H](Cc3ccccc3)C2=O)cc1` (some centres not stated), the pIC50 was 6.68 against Prothrombin [1] and 5.39 on Serine protease 1 [2].
In the case of `N=C(N)N1CCCC(C[C@H](NC(=O)CN2C(=O)CN(Cc3ccccc3)C(=O)[C@@H]2Cc2ccc3ccccc3c2)C(=O)c2nccs2)C1` (some centres not stated), the pIC50 on Prothrombin [1] was 6.77. Further, on Prothrombin [3], the pKi is 8.46.
`N=C(N)N1CCCC(C[C@H](NC(=O)CN2C(=O)CN(CCCc3ccccc3)C(=O)[C@H]2Cc2ccc(Cl)cc2)C(=O)c2nccs2)C1` (some centres not stated): the negative-log IC50 (pIC50) against Prothrombin [1] is 6.55; against Serine protease 1 [2], 4.77.
Taken in the same sequence, the figures for `N=C(N)N1CCCC(C[C@H](NC(=O)CN2C(=O)CN(CCCc3ccc([N+](=O)[O-])cc3)C(=O)[C@H]2Cc2ccccc2)C(=O)c2nccs2)C1` (some centres not stated) were 6.68 and 5.04.
On to `CCCCN1CC(=O)N(CC(=O)N[C@@H](CC2CCCN(C(=N)N)C2)C(=O)c2nccs2)[C@H](Cc2ccccc2)C1=O` (some centres not stated), for which the pIC50 on Prothrombin [1] was 6.47; at Serine protease 1 [2] it was 4.82. The compound also had a pKi at Prothrombin [3] of 7.49.
Consider `N=C(N)N1CCCC(C[C@H](NC(=O)CN2C(=O)CN(CCCc3ccccc3)C(=O)[C@H]2Cc2cccc(Cl)c2)C(=O)c2nccs2)C1` (some centres not stated), for which the negative logarithm of the IC50 (pIC50) was 6.41 against Prothrombin [1] and 5.32 against Serine protease 1 [2]. This compound showed a pKi at Prothrombin [3] of 7.70.
Consider `N=C(N)N1CCCC(C[C@H](NC(=O)CN2C(=O)CN(CCCc3ccc(Cl)cc3)C(=O)[C@H]2Cc2ccccc2)C(=O)c2nccs2)C1` (some centres not stated), for which the pIC50 was 6.96 against Prothrombin [1] and 5.32 against Serine protease 1 [2].
In the case of `COc1ccc(CCCN2CC(=O)N(CC(=O)N[C@@H](CC3CCCN(C(=N)N)C3)C(=O)c3nccs3)[C@H](Cc3ccccc3)C2=O)cc1` (some centres not stated), the pIC50 at Prothrombin [1] was 6.80; against Serine protease 1 [2], 4.85.
Take `CC(C)c1ccc(CCCN2CC(=O)N(CC(=O)N[C@@H](CC3CCCN(C(=N)N)C3)C(=O)c3nccs3)[C@H](Cc3ccccc3)C2=O)cc1` (some centres not stated): the pIC50 against Prothrombin [1] was 6.43; against Serine protease 1 [2], 5.15.
Taken in the same sequence, the figures for `N=C(N)N1CCCC(C[C@H](NC(=O)CN2C(=O)CN(CCCc3ccc(Cl)c(Cl)c3)C(=O)[C@H]2Cc2ccccc2)C(=O)c2nccs2)C1` (some centres not stated) were 6.60 and 5.14.
Regarding `N=C(N)NCCC[C@H](NC(=O)CN1C(=O)CN(CCCc2ccccc2)C(=O)[C@H]1Cc1ccccc1)C(=O)O`, the inhibition on Serine protease 1 [4] and in the test on Trypsin was 20% in each case.
Consider `CNC(=O)[C@H](CC1CCCN(C(=N)N)C1)NC(=O)CN1C(=O)CN(CCCc2ccccc2)C(=O)[C@H]1Cc1ccccc1` (some centres not stated), for which the pIC50 at Prothrombin [1] is 6.36; at Serine protease 1 [2], 5.64. In addition, the pKi at Prothrombin [3] was 7.26.
With `N=C(N)N1CCC[C@@H](C[C@H](NC(=O)CN2C(=O)CN(CCCc3ccccc3)C(=O)[C@H]2Cc2ccccc2)C(=O)c2nccs2)C1`, the pIC50 against Prothrombin [1] was 6.77; on Serine protease 1 [2], 5.04. On Prothrombin [3], this compound gave a pKi of 7.26.
With `N=C(N)N1CCCC(C[C@H](NC(=O)CN2C(=O)CN(CCCc3ccccc3)C(=O)[C@H]2C(c2ccccc2)c2ccccc2)C(=O)c2nccs2)C1` (some centres not stated), the pIC50 against Prothrombin [1] was 6.46; on Serine protease 1 [2], 5.07.
